In assay [1] the test system is bilateral common carotid arteries occlusion C57BL/6J mice. The assay is described as follows: Y-maze test. In kind it is in vivo. The conditions noted are these: single agent, after 7 days administration; for spontaneous alternation behavior rate (Alternation), memory behavior: high dose 100 mg/kg oral; for spontaneous alternation behavior rate (Alternation): low dose 40 mg/kg oral, compared to distilled water group (Group 2). Here is the method:
(§1) Experimental Example: 10-week-old male C57BL/6J mice (CLEA Japan, Inc. approximately 25 g of average body weight per mouse) were preliminarily acclimated for 1 week, and provided for experiments. Citrulline and glutathione were obtained from KYOWA HAKKO BIO CO., LTD.
(§2) C57BL/6J mice were divided into a sham-operation group (Group 1) and a bilateral common carotid arteries occlusion group, which was performed under halothane anesthesia for 20 minutes. One day after reperfusion, the bilateral common carotid arteries occlusion group was further divided into a distilled water-treated group (Group 2), a low-dose citrulline-treated group (40 mg/kg: Group 3), a low-dose glutathione-treated group (40 mg/kg: Group 4), a high-dose citrulline-treated group (100 mg/kg: Group 5), a high-dose glutathione-treated group (100 mg/kg: Group 6), and a combination treatment group of a low dose of citrulline and a low dose of glutathione (each 40 mg/kg: Group 7). Each sample was orally administered for 12 days. One week after starting administration, learning memory-improving effects were examined by a Y-maze test, a passive avoidance test, and a novel object recognition test. After evaluating learning memory functions, the hippocampus was removed and viability of hippocampal nerve cells was evaluated.
In the Y-maze test, a Y-maze apparatus with three arms (50×16×32 cm) was used. Mice were placed at any one arm of the Y-maze and were allowed to explore freely through the maze for 8 minutes. The sequence of arm entries was recorded. The number of entries into each arm was counted during the measurement time, which was defined as the total number of entries. Of them, the successive entry into the three different arms was examined, and this number was defined as the spontaneous alternation behavior number. The spontaneous alternation behavior number was divided by (the total number of arm entries minus two), and then multiplied by 100, which was defined as the spontaneous alternation behavior rate (Alternation) and used as an index for spontaneous alternation behavior.

Assay [2] shares this test system. Kind of assay: Novel object recognition test. The conditions noted are these: single agent, after 7 days administration; for frequency of exploring the novel object, memory behavior: high dose 100 mg/kg oral; for frequency of exploring the novel object: low dose 40 mg/kg oral. The class given is in vivo. Here is the method:
as §1, §2
The novel object recognition test was performed after mice were individually acclimated to the open field apparatus (35×25×35 cm) for 2 days. During training, mice were allowed to explore freely for 10 minutes in an apparatus where two identical objects were symmetrically placed. After 1 hour, one object was replaced by a novel object, and mice were allowed to explore freely for 5 minutes. Object exploration was defined as standing on the objects, touching the object with the nose, or sniffing the object within 1 cm from the object. A ratio of the frequency of exploring the familiar or novel object over the total exploration frequency was calculated, and used as an index for visual recognition memory.

The subject of assay [3] is hippocampal nerve cells (CA1 pyramidal cell layer). The assay is described as follows: Evaluation of viability of hippocampal nerve cells. The class given is in vivo, mice. The conditions noted are these: single agent, 12 days administration. Here is the method:
as §1, §2
Twelve days after bilateral occlusion of the common carotid arteries, mice were anesthetized with pentobarbital sodium, and perfused with ice-cold phosphate buffer (PBS, pH 7.4) until the blood in the body was completely removed. Immediately, mice were perfused with a fixative solution containing 4% paraformaldehyde. The brain tissues were fixed at 4° C. for 24 hours, and coronal sections having a thickness of 50 μm were prepared. Serial sections containing the hippocampus were stained with propidium iodide (PI, 5 μmol/L) dissolved in PBS and observed under a fluorescent microscope. Surviving and non-surviving nerve cells in the CA1 pyramidal cell layer of the hippocampus were counted at 1.4 to 1.8 mm posterior to bregma, and cells with PI-positive nuclei and typical morphological characteristics were defined as […]. The cell viability was calculated from a ratio to the average number of surviving nerve cells in Group 1.

The test system of assay [4] is bilateral common carotid arteries occlusion C57BL/6J mice. Kind of assay: Passive avoidance test. In kind it is in vivo. To be noted: single agent, after 7 days administration; for latency time spent in the light compartment, memory behavior: high dose 100 mg/kg oral; for latency time spent in the light compartment: low dose 40 mg/kg oral, compared to Group 2. Here is the method:
as §1, §2
The passive avoidance test was performed using a box consisting of dark (25×25×25 cm) and light compartments (14×10×25 cm) and being equipped with an electrical stimulation apparatus at the bottom of the dark compartment. During training, as soon as the mouse entered the dark compartment from the light compartment, the door was closed, and an electrical stimulation (0.3 mA, for 2 seconds) was delivered. Twenty four hours after training, the mouse was placed again in the light compartment, and the latency time spent in the light compartment was recorded with a maximum latency of 300 seconds.

Where [5] appears, read: low dose 40 mg/kg oral, compared to Group 2.

SMILES strings stand for the structures.

Experimental findings from patent publication US20150265670A1, “AGENT FOR PREVENTING OR IMPROVING DECLINE IN BRAIN FUNCTION” (KYOWA HAKKO BIO CO., LTD., priority 2012, published 2015) are described below.

On to `NC(=O)NCCC[C@H](N)C(=O)O` [citrulline], for which, in assay [1], the “spontaneous alternation behavior rate (Alternation), memory behavior” value is recorded as “remarkably improved effect of memory behavior” and the “spontaneous alternation behavior rate (Alternation)” value was “cannot be improved”. For the same molecule, in assay [2], the “frequency of exploring the novel object, memory behavior” value is on record as “remarkably improved effect of memory behavior” and the “frequency of exploring the novel object” value is listed as “cannot be increased”. For the same molecule, the “viability of hippocampal nerve cells” value in assay [3] (high dose 100 mg/kg oral) is on record as “nerve cell-protecting effect”. The “viability of hippocampal nerve cells” value in assay [3] (setting [5]) is reported as “cannot be improved”. In addition, in assay [4], the “latency time spent in the light compartment, memory behavior” value is “remarkably improved effect of memory behavior” and the “latency time spent in the light compartment” value was “cannot be improved”.

`N[C@@H](CCC(=O)N[C@@H](CS)C(=O)NCC(=O)O)C(=O)O` [glutathione]: in assay [1], the “spontaneous alternation behavior rate (Alternation), memory behavior” value was “remarkably improved effect of memory behavior” and the “spontaneous alternation behavior rate (Alternation)” value is “cannot be improved”. In assay [2], the “frequency of exploring the novel object, memory behavior” value is recorded as “remarkably improved effect of memory behavior” and the “frequency of exploring the novel object” value is given as “cannot be increased”. Moreover, the “viability of hippocampal nerve cells” value in assay [3] (high dose 100 mg/kg oral) was “nerve cell-protecting effect”. The “viability of hippocampal nerve cells” value in assay [3] (setting [5]) was “cannot be improved”. In assay [4], the “latency time spent in the light compartment, memory behavior” value is “remarkably improved effect of memory behavior” and the “latency time spent in the light compartment” value is “cannot be improved”.
